Literature values, collected in patent publication US10953021B2, “Topical compositions of flunisolide and methods of treatment” (Lupin Limited, priority 2013, dated 2021).

Experiments:
[1] = McKenzie skin blanching test, versus dexamethasone
[2] = animal anti-inflammatory assays, versus cortisol

## CC1(C)O[C@@H]2C[C@H]3[C@@H]4C[C@H](F)C5=CC(=O)C=C[C@]5(C)[C@H]4[C@@H](O)C[C@]3(C)[C@]2(C(=O)CO)O1 [Flunisolide, 6α-fluoro-11β, 21-dihydroxy-16α,17α-(isopropylidenedioxy)pregna-1,4-diene-3,20-dione]
[1]
  anti-inflammatory effects relative to dexamethasone: several hundred times more potent than dexamethasone
[2]
  anti-inflammatory potency relative to cortisol: several hundred times more potent than cortisol
